According to patent US20220056018A1, “SREBP INHIBITORS COMPRISING A THIOPHENE CENTRAL RING” (Capulus Therapeutics, LLC, priority 2019, published 2022):
pIC50: −log10 of the molar value.

Legend:
Assay in all cases: Cancer cell growth inhibition
Assay type in all cases: cell-based
22RV1 = details: Homo sapiens; 22RV1 (prostate), 72 hr treatment
Procedure: (§1) The ability of select compounds to inhibit cell growth in various cancer cell lines are evaluated. […] The cell lines shown in Table 2 have reduced growth by at least 50% at 10 uM or lower over 72 hr treatment in growth media. The cell lines shown in Table 3 have reduced growth by at least 50% with an IC50 greater than 10 uM.
(§2) Six 10-fold compound dilutions are prepared in DMSO (e.g. 10 mM, 1 mM, 100 uM, 10 uM, 1 uM, and 0.1 uM). Single data points are acquired for each concentration. The final concentration of DMSO is 0.1%. The duration of the treatment is 72 hr. Growth inhibition is measured using Sulforhodamine B in a protein staining assay. Activity of the agents is determined by evaluation the following parameters: IC50, GI50, IC10, TGI, LC50, IC90, and GI90 (where these values can be calculated).

A204 = details: Homo sapiens; A204 (muscle), 72 hr treatment
Procedure: as §1, §2

A375 = details: Homo sapiens, A-375; A375 (skin), 72 hr treatment
Procedure: as §1, §2

A431 = details: Homo sapiens, A-431; A431 (skin), 72 hr treatment
Procedure: as §1, §2

A549 = details: Homo sapiens; A549 (lung), 72 hr treatment
Procedure: as §1, §2

A673 = details: Homo sapiens; A673 (muscle), 72 hr treatment
Procedure: as §1, §2

ASPC1 = details: Homo sapiens; ASPC1 (pancreas), 72 hr treatment
Procedure: as §1, §2

BT20 = details: Homo sapiens, BT-20; BT20 (breast), 72 hr treatment
Procedure: as §1, §2

C33A = details: Homo sapiens, C-33-A; C33A (endometrial), 72 hr treatment
Procedure: as §1, §2

CAKI1 = details: Homo sapiens, CAKI-1; CAKI1 (kidney), 72 hr treatment
Procedure: as §1, §2

CALU6 = details: Homo sapiens, Calu-6; CALU6 (lung), 72 hr treatment
Procedure: as §1, §2

HCT116 = details: Homo sapiens, HCT-116; HCT116 (colon), 72 hr treatment
Procedure: as §1, §2

HCT15 = details: Homo sapiens, HCT-15; HCT15 (colon), 72 hr treatment
Procedure: as §1, §2

HEK293 = details: Homo sapiens; HEK293 (kidney), 72 hr treatment
Procedure: as §1, §2

HS578T = details: Homo sapiens, Hs-578T; HS578T (breast), 72 hr treatment
Procedure: as §1, §2

J82 = details: Homo sapiens; J82 (bladder), 72 hr treatment
Procedure: as §1, §2

JIMT1 = details: Homo sapiens, JIMT-1; JIMT1 (breast), 72 hr treatment
Procedure: as §1, §2

K-562 = details: Homo sapiens, K562; K-562 (hematological), 72 hr treatment
Procedure: as §1, §2

MCF7 = details: Homo sapiens; MCF7 (breast), 72 hr treatment
Procedure: as §1, §2

MDAMB231 = details: Homo sapiens, MDA-MB-231; MDAMB231 (breast), 72 hr treatment
Procedure: as §1, §2

MG63 = details: Homo sapiens, MG-63; MG63 (bone), 72 hr treatment
Procedure: as §1, §2

MIAPACA2 = details: Homo sapiens, MIA PaCa-2; MIAPACA2 (pancreas), 72 hr treatment
Procedure: as §1, §2

NCIH358M = details: NCI-H358M; NCIH358M (lung), 72 hr treatment
Procedure: as §1, §2

NCIH82 = details: Homo sapiens, NCI-H82; NCIH82 (lung), 72 hr treatment
Procedure: as §1, §2

RAMOS = details: Homo sapiens; RAMOS (hematological), 72 hr treatment
Procedure: as §1, §2

SF295 = details: Homo sapiens, SF-295; SF295 (brain), 72 hr treatment
Procedure: as §1, §2

SKBR3 = details: Homo sapiens, SK-BR-3; SKBR3 (breast), 72 hr treatment
Procedure: as §1, §2

SKLMS1 = details: Homo sapiens, SK-LMS-1; SKLMS1 (uterus), 72 hr treatment
Procedure: as §1, §2

T24 = details: Homo sapiens, T-24; T24 (bladder), 72 hr treatment
Procedure: as §1, §2

THP-1 = details: Homo sapiens; THP-1 (hematological), 72 hr treatment
Procedure: as §1, §2

UO31 = details: Homo sapiens, UO-31; UO31 (kidney), 72 hr treatment
Procedure: as §1, §2

WSU-NHL = details: Homo sapiens; WSU-NHL (hematological), 72 hr treatment
Procedure: as §1, §2

Row | Structure (SMILES) | pIC50 (22RV1) | pIC50 (A204) | pIC50 (A375) | pIC50 (A431) | pIC50 (A549) | pIC50 (A673) | pIC50 (ASPC1) | pIC50 (BT20) | pIC50 (C33A) | pIC50 (CAKI1) | pIC50 (CALU6) | pIC50 (HCT116) | pIC50 (HCT15) | pIC50 (HEK293) | pIC50 (HS578T) | pIC50 (J82) | pIC50 (JIMT1) | pIC50 (K-562) | pIC50 (MCF7) | pIC50 (MDAMB231) | further results
1 | CC(C)(CO)c1cc(-c2csc(-c3ccc(NS(C)(=O)=O)cc3Cl)c2)ccn1 [Compound I-8909, N-(3-chloro-4-(4-(2-(1-hydroxy-2-methylpropan-2-yl)pyridin-4-yl)thiophen-2-yl)phenyl)methanesulfonamide] | > 5.00 | > 5.00 | < 5.00 | < 5.00 | > 5.00 | < 5.00 | > 5.00 | < 5.00 | > 5.00 | > 5.00 | > 5.00 | > 5.00 | < 5.00 | > 5.00 | < 5.00 | > 5.00 | > 5.00 | > 5.00 | > 5.00 | < 5.00 | pIC50 (MG63): < 5.00; pIC50 (MIAPACA2): < 5.00; pIC50 (NCIH358M): > 5.00; pIC50 (NCIH82): > 5.00; pIC50 (RAMOS): > 5.00; pIC50 (SF295): > 5.00; pIC50 (SKBR3): > 5.00; pIC50 (SKLMS1): < 5.00; pIC50 (T24): < 5.00; pIC50 (THP-1): > 5.00; pIC50 (UO31): < 5.00; pIC50 (WSU-NHL): > 5.00
2 | CC(C)(O)Cc1cc(-c2csc(-c3ccc(NS(C)(=O)=O)cc3Cl)c2)ccn1 [Compound I-9004, N-(3-chloro-4-(4-(2-(2-hydroxy-2-methylpropyl)pyridin-4-yl)thiophen-2-yl)phenyl)methanesulfonamide] | > 5.00 | < 5.00 | < 5.00 | < 5.00 | > 5.00 | < 5.00 | > 5.00 | < 5.00 | > 5.00 | > 5.00 | > 5.00 | > 5.00 | > 5.00 | > 5.00 | < 5.00 | < 5.00 | > 5.00 | > 5.00 | > 5.00 | < 5.00 | pIC50 (MG63): < 5.00; pIC50 (MIAPACA2): < 5.00; pIC50 (NCIH358M): > 5.00; pIC50 (NCIH82): > 5.00; pIC50 (RAMOS): > 5.00; pIC50 (SF295): > 5.00; pIC50 (SKBR3): > 5.00; pIC50 (SKLMS1): < 5.00; pIC50 (T24): < 5.00; pIC50 (THP-1): > 5.00; pIC50 (UO31): < 5.00; pIC50 (WSU-NHL): > 5.00
3 | CS(=O)(=O)Nc1ccc(-c2cc(-c3ccnc4c3OCCO4)cs2)c(Cl)c1 [Compound I-9017, N-(3-chloro-4-(4-(2,3-dihydro-[1,4]dioxino[2,3-b]pyridin-8-yl)thiophen-2-yl)phenyl)methanesulfonamide] | > 5.00 | > 5.00 | < 5.00 | < 5.00 | > 5.00 | > 5.00 | > 5.00 | > 5.00 | > 5.00 | > 5.00 | > 5.00 | > 5.00 | < 5.00 | > 5.00 | < 5.00 | < 5.00 | > 5.00 | > 5.00 | > 5.00 | < 5.00 | pIC50 (MG63): < 5.00; pIC50 (MIAPACA2): > 5.00; pIC50 (NCIH358M): > 5.00; pIC50 (NCIH82): > 5.00; pIC50 (RAMOS): > 5.00; pIC50 (SF295): > 5.00; pIC50 (SKBR3): > 5.00; pIC50 (SKLMS1): < 5.00; pIC50 (T24): > 5.00; pIC50 (THP-1): > 5.00; pIC50 (UO31): > 5.00; pIC50 (WSU-NHL): > 5.00
